Source: article PMC5342726, “Identification of small molecule inhibitors of ERCC1-XPF that inhibit DNA repair and potentiate cisplatin efficacy in cancer cells” (Oncotarget, 2016)
Where two headings read alike, the source gives them in different places.

Experiments:
H1299 ERCC1 KO cells = assay: Colony survival assay in H1299 ERCC1 KO cells; format: cell-based
Procedure: (§1) We used H460, NSCLC cells, to first assess the impact on colony survival by knocking down ERCC1-XPF in these cells. […] Next, to assess if colony survival is affected we titrated cisplatin in these cells using a fixed concentration of Hit 1(50 μM) or Hit 2 (25 and 50 μM). […] Next, we assessed cisplatin potentiation by treating cells at a fixed cisplatin concentration (cisplatin IC50 in H460 cells) with Hit 1 or 2 titration (Figure 4C, filled symbols). H460 cells were treated with compound for a total of 4 hours while cisplatin was added to the media after 2 hours of compound pre-treatment. […] We also titrated Hit 1 or Hit 2 alone in these cells and treated for 4 h. […] We also assessed the effects of Hit 2 in another NSCLC cell line (H1299), which was either ERCC1 wildtype (WT) or knockout (KO) (Figure 4E).
(§2) Colony survival assay in a total reaction volume of 2.4 mL in a six-well plate Cells were split and seeded at a density of 300-400 format. […]
(§3) with ≥50 cells were counted using a light microscope. […]
(§4) survival was expressed as the ratio of average number of into a linearized pCR4-TOPO vector and transformed colonies in drug treated cells versus control cells x 100. into OneShot TOP10 E. coli using the TOPO-TA Cloning The experiment was done in triplicate for each drug Kit for Sequencing (Thermofisher). […]

H460 xenografts = conditions: for tumor growth, combination with cisplatin: 16168 20 mg/kg i.p. daily + cisplatin 3 mg/kg i.p. twice a week
APE1 endonuclease = tested on: APE1 endonuclease; parameters: method as in PMID 18042731; conditions: cited from earlier work
H460 cells [1] = assay: Cisplatin interstrand crosslink repair by comet assay; format: cell-based; conditions: compound 15 μM 2 h then cisplatin at IC90; 0-72 h
Procedure: (B) After treatment, comet assay was performed as described at different time intervals (0, 24, 48 and 72 h). The percentage of interstrand crosslinks remaining was calculated using olive tail moment. Results are represented as mean ± SEM of three independent experiments.
The data is expressed as the percentage of crosslinks remaining at the time points assessed.
Cells were treated with compound (Hit control (9:1 DMSO-glycerol). After incubation at 37°C 1 or Hit 2) and cisplatin or just cisplatin alone in serum for 30 minutes, 2 μL of the pre-incubate was diluted into a free media. […] Cells were further treated with 100 μM
Cells were then trypsinized, pelleted and resuspended in 1% low melting point agarose.

H460 cells [2] = assay: Colony survival assay in H460 cells; format: cell-based; conditions: for IC50: Homo sapiens, NCI-H460, Fig 4C, compound 4 h, cisplatin fixed at IC50 added after 2 h, read-out: compound titration with cisplatin at the IC50, colony survival; for fold change in cisplatin IC50 in combination: combination with cisplatin; for effect of compound alone on colony survival: compound titrated alone, 4 h
Procedure: as §1
Colony survival assay in a total reaction volume of 2.4 mL in a six-well plate Cells were split and seeded at a density of 300-400 format. Cells were transfected for 48 hours after which cells in a 60 mm plate and incubated overnight. The next complete media was added for 24 hours. Cells were day, the cells were treated with a fixed concentration of the seeded for clones and clones were selected using standard compound (Hit 1 or Hit 2) with cisplatin titration. After methods. ERCC1 KO clones were tested for ERCC1 treatment, fresh complete medium with antibiotics was and XPF expression by Western Blot using the ERCC1 added and the cells were then allowed to form colonies. In antibodies, 8F1, FL-297, and D-10 and the XPF antibody another method, the cells were seeded onto 60mm plates 3F2/3 (Santa Cruz).
Validation of genome editing was performed alone or titrated with a fixed concentration of cisplatin by PCR amplification with Taq polymerase (NEB) of (IC50 for the cell line used). Post treatment, the cells were exon 2 within the genomic DNA using the forward allowed to form colonies. Colonies were fixed with 95% primer: 5’ […]
methanol and stained with 0.2 % crystal violet. Colonies 3’ and the reverse primer: 5’ […]
with ≥50 cells were counted using a light microscope. Cell […] 3’. PCR product was cloned […]
survival was expressed as the ratio of average number of into a linearized pCR4-TOPO vector and transformed colonies in drug treated cells versus control cells x 100. into OneShot TOP10 E. coli using the TOPO-TA Cloning The experiment was done in triplicate for each drug Kit for Sequencing (Thermofisher). Bacterial colonies concentration. We have previously published the methods were selected with ampicillin and plasmid was extracted for ERCC1 and XPF knockdowns, which were used as using standard procedures. Plasmid was sequenced by controls. Briefly, cells were seeded onto six-well plates GeneWiz using an M13R primer. Potential sites of off-target editing in coding sequences were identified during
(density 2.5 × 10^5 cells /well) in antibiotic free media. guide RNA design with the Optimized CRISPR Design Two transfections were done at 24 h interval in each cell Tool. Primers were designed to amplify the exons line to knockdown ERCC1-XPF together according to containing the potential off-target sites and PCR product the manufacturer ’s (Dharmacon’s smartpools) protocol. was sequenced by GeneWiz. A list of specific off-target Addition of lipid reagent (Dharmafect 2, Dharmacon) sites and primers used to assess these off-target effects are […]

H1299 ERCC1 WT cells = assay: Colony survival assay in H1299 ERCC1 WT cells; format: cell-based
Procedure: as §1, §2, §3, §4

Structure (SMILES) | potentiation of cisplatin response, ERCC1 KO (H1299 ERCC1 KO cells) | tumor growth, combination with cisplatin (H460 xenografts) | tumor growth, combination with cisplatin (H460 xenografts; listed as Hit 2) | tumor growth, single agent (H460 xenografts; 16168 20 mg/kg i.p. daily or cisplatin 3 mg/kg i.p. twice a week, 10 days) | IC50 (APE1 endonuclease) [µM] | effect on ICL repair (H460 cells [1]) | IC50 (H460 cells [2]) [µM] | fold change in cisplatin IC50 in combination (H460 cells [2]) | effect of compound alone on colony survival (H460 cells [2]) | potentiation of cisplatin response, ERCC1 WT (H1299 ERCC1 WT cells)
Cc1ccc(S(=O)(=O)Oc2cc(S(=O)(=O)O)cc3cc(S(=O)(=O)O)cc(N)c23)cc1 [NSC16168] | no additional cisplatin potentiation | inhibited H460 tumor growth | significant effect on tumor growth compared with cisplatin alone | tumor growth was minimally affected | ~7 | does not have any effect on ICL repair | 4 | ~ 3 fold | no effect on colony survival | potentiated the cisplatin response
Oc1cc(O)c2c(c1)OC(c1ccc(O)c(O)c1)C(O)C2c1c(O)cc(O)c2c1OC(c1ccc(O)c(O)c1)C(O)C2 (centres unmarked) [NSC143099] |  |  |  |  |  | ICL repair was significantly reduced | 15 | ~ 3 fold | no effect on colony survival | 
